Patent US20180008587A1, “THIOHYDANTOIN ANDROGEN RECEPTOR ANTAGONISTS FOR THE TREATMENT OF CANCER” (Jaressen Pharmaceutica NV, priority 2016, published 2018)
Where a chain is given by its changes, count along the chain named.

Key:
[1] = molecular target: T1, AR H874Y (Homo sapiens, UniProt P10275, H875Y); assay: Luciferase transcriptional reporter assay, mutant AR, HepG2, antagonist mode; format: cell-based; settings: HepG2, 90 pM R1881, 48 hours; * denotes incomplete inhibition (otherwise 100%); read-out: Antagonism; IC50, AR construct H874Y
T1 construct: expressed in transfected cells; host or cells: HepG2
T1 sequence (P10275 1-920 H875Y): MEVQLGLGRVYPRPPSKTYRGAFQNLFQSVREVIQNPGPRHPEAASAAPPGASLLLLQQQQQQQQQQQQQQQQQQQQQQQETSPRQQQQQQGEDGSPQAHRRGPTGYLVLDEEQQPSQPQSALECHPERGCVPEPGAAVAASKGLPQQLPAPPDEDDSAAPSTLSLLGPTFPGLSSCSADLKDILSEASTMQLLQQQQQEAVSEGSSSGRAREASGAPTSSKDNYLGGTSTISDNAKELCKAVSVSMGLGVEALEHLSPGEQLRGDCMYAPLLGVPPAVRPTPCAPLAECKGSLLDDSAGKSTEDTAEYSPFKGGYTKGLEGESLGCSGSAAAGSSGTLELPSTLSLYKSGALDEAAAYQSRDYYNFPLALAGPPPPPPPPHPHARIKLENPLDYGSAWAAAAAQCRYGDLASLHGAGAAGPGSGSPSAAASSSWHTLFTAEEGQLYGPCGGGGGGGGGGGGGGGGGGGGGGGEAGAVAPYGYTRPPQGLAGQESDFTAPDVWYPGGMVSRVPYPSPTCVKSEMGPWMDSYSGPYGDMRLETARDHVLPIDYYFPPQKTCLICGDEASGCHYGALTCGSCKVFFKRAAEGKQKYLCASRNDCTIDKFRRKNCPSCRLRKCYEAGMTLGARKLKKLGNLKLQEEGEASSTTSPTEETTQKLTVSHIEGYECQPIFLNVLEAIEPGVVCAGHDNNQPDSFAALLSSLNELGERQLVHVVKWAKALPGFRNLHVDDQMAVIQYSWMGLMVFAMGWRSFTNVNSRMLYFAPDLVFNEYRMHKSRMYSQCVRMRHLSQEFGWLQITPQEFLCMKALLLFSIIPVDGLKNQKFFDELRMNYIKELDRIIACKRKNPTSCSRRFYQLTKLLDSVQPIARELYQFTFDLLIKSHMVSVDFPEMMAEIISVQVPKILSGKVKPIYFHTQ
Experimental: (§1) HepG2 cells were maintained in EMEM supplemented with 10% FBS. One day before transfection, the media was changed to EMEM with 10% CSS. T-150 flasks were transiently transfected using 120 μL Lipofectamine 2000 (Life Technologies), 30 μg mutant cDNA (expression vector)—mutant cDNA tested were L701H, T877A, W741C and H874Y—and 40 μg 4×ARE-Luciferase (reporter vector) in OptiMEM and the flasks were incubated overnight. Cells were then trypsinized, counted and resuspended at 500,000 cells/mL. For agonist mode, the compounds of Formula (I) are serially diluted and 50 μL of the compound added per well. 50 μL of the cells are added to each well and incubated for 48 hours. For antagonist mode, a final concentration of 90 pM R1881 was added to the diluted compounds and incubated for 48 hours. The plates were then assayed using SteadyGlo and read on the Envision. Percent Stimulation and Inhibition is determined and analyzed using GraphPad Prism.
(§2) All values are calculated relative to the activity of R1881 induced androgen receptor activity (n≧3).

[2] = molecular target: T2, AR L701H (Homo sapiens, UniProt P10275, L702H); assay: as above; format: cell-based; settings: HepG2, 90 pM R1881, 48 hours; * denotes incomplete inhibition (otherwise 100%); read-out: Antagonism; IC50, AR construct L701H
T2 construct: expressed in transfected cells; host or cells: HepG2
T2 sequence (P10275 1-920 L702H): T1 sequence (P10275 1-920 H875Y) with L702H, Y875H
Experimental: as §1, §2

- IC50 [1]: 1950 nM
- IC50 [2]: 3360 nM
Compound: N#Cc1ncc(N2C(=O)C3(CCC3)N(c3ccc(OC4CCNCC4)cc3)C2=S)cc1C(F)(F)F [Cpd 35, 5-[5-oxo-8-[4-(4-piperidyloxy)phenyl]-7-thioxo-6,8-diazaspiro[3.4]octan-6-yl]-3-(trifluoromethyl)pyridine-2-carbonitrile]
